# Results from patent publication US10253002B2, “Compounds and methods of treating infections” (Neoculi Pty Ltd., priority 2013, dated 2019).
# Columns and labels:
# [1] = Visual analysis of solubility in diluents and media, Example 5; type: physicochemical
# [2] = test system: Pseudomonas aeruginosa; test: Broth microdilution MIC, Example 7 (NCL812 and analogues); type: cell-based; conditions: 24 hours; 1st and 2nd replicate rows
# [3] = test system: MRSA; test: as above; type: cell-based, Staphylococcus aureus
# How it was run: (§1)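 CLSI broth microdilution against two MRSA and two VRE strains, tested in duplicate with a third run if results differed by more than one two-fold dilution.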
# [4] = Bioassay ranking of the analogues tested; conditions: M + R (MRSA and VRE combined)
# [5] = test system: S. pneumoniae strain D39; test: MBC time kill studies (relative MBC at time points); type: cell-based, Streptococcus pneumoniae
# Text: MBC kill kinetics assays involved the preparation of three 96 well microtitre trays.
# [6] = test system: VRE; test: Broth microdilution MIC, Example 7 (NCL812 and analogues); type: cell-based, Enterococcus spp.
# How it was run: as §1
# [7] = test system: S. pneumoniae isolates; test: Micro-broth dilution MIC, Example 5; type: cell-based, Streptococcus pneumoniae
# Experimental: For all in vitro assays, fresh pneumococcal isolates were grown overnight (O/N) on horse blood agar (HBA) plates (39 g/L Columbia blood agar base [Oxoid] 5% [v/v] defribinated horse blood [Oxoid] at 37° C. with 5% supplemented CO2). Mueller-Hinton blood agar with 5% defibrinated sheep blood (MHSBA Roseworthy Media and Blood Service) was used for disk diffusion analysis as directed by Clinical Laboratory Standards Institute (CLSI) standards. Pneumococci were routinely grown in broth consisting of 4% lysed horse blood (LHB) with Cation Adjusted Mueller Hinton Broth (CAHMB, [Difco]) at 37° C. with 5% supplemented CO2. […] Isolates were stored in HSB at −80° C.
# (§2) [Micro-broth dilutions and 96 well trays are prepared by the following method: 90 μL of 4% LHB:CAMHB is aliquotted into all wells using a multichannel pipette. 90 μL of working antimicrobial stocks were no serial diluted down the tray by a 1:2 dilution. Negative broth controls and dilution control were taken into account when planning the set up of a 96 well tray.] 10 μL of bacterial suspension was then added to the appropriate wells in the 96 well tray. Appropriate positive (no antimicrobial), negative (no antimicrobial or bacteria) and negative dilution (a serial dilution control of antimicrobial and broth) controls were included in each assay. […] The MBC was determined by a 99.95% inhibition of S. pneumoniae, taking into account the dilution factor. MICs and MBCs were determined in quadruplicate and the mode was taken as the representative value. The MIC50, MIC90 and MIC range and MBC50, MBC90 and MBC range were determined according to CLSI standards. The MIC50 and MIC90, or MBC50 and MBC90, are defined by the lowest concentrations which, when all the MICs and MBCs of the isolates are arranged from lowest to highest, inhibited the 50th and 90th percentile of the total amount of isolates, respectively.
# [8] = test system: Escherichia coli; test: Broth microdilution MIC, Example 7 (NCL812 and analogues); type: cell-based; conditions: 24 hours; 1st and 2nd replicate rows
# [9] = test system: S. pneumoniae isolates; test: MBC, Example 5; type: cell-based, Streptococcus pneumoniae
# Experimental: as §2
# [10] = isolate WCH158, Table 22, CAMHB diluent for NCL062
smiles,measurement,setting,value
C/C(=N\NC(=N)N/N=C(\C)c1ccc(Cl)cc1)c1ccc(Cl)cc1.Cl [NCL062],Visual analysis of solubility,[1]; Diluent CAMHB,Transparent
same,Visual analysis of solubility,[1]; Diluent DMSO,Precipitate
same,Visual analysis of solubility,[1]; Diluent PBS,Precipitate
same,Visual analysis of solubility,[1]; Media 4% LHB:CAMHB,Transparent
same,Visual analysis of solubility,[1]; Media 10% horse serum-supplemented broth,Transparent
same,"MIC (μg/ml) at 24 hours, P. aeruginosa",[2],>128 µg/mL
same,activity against MRSA among analogues,"[3]; MIC testing, two MRSA strains",greatest activity
same,MRSA,"[3]; bioassay ranking, MRSA",3 µg/mL
same,"MIC (μg/ml) at 24 hours, MRSA 1","[3]; isolate MRSA 1, 24 hours, 1st and 2nd replicate rows",2 µg/mL
same,"MIC (μg/ml) at 24 hours, MRSA 2","[3]; isolate MRSA 2, 24 hours, 1st and 2nd replicate rows",4 µg/mL
same,M + R,[4],2.25 µg/mL
same,constant bactericidal concentration,[5]; between 24 and 48 h,4 µg/mL
same,immediate MBC,[5]; within the first 10 min of administration,8 µg/mL
same,activity against VRE among analogues,"[6]; MIC testing, two VRE strains",greatest activity
same,VRE,"[6]; bioassay ranking, VRE",1.5 µg/mL
same,"MIC (μg/ml) at 24 hours, VRE 1","[6]; isolate VRE 1, 24 hours, 1st and 2nd replicate rows",2 µg/mL
same,"MIC (μg/ml) at 24 hours, VRE 2","[6]; isolate VRE 2, 24 hours, 1st and 2nd replicate rows",1 µg/mL
same,MIC,[7]; A66.1,8 µg/mL
same,MIC,[7]; D39,2 µg/mL
same,Relative MIC with media type for D39,"[7]; D39, 4% LHB:CAMHB",4 µg/mL
same,Relative MIC with media type for D39,"[7]; D39, 10% horse serum-supplemented broth",32 µg/mL
same,MIC,[7]; EF3030,16 µg/mL
same,MIC,[7]; L82016,8 µg/mL
same,MIC,[7]; P9,4 µg/mL
same,MIC,[7]; P21,4 µg/mL
same,"MIC of D39, stored pre-prepared micro-titer trays",[7]; Storage condition 4° C.,4 µg/mL
same,"MIC of D39, stored pre-prepared micro-titer trays",[7]; Storage condition −2° C.,4 µg/mL
same,MIC,[7]; TIGR4,8 µg/mL
same,MIC,[7]; WCH16,32 µg/mL
same,MIC,[7]; WCH43,2 µg/mL
same,MIC,[7]; WCH46,32 µg/mL
same,MIC,[7]; WCH57,4 µg/mL
same,MIC,[7]; WCH77,8 µg/mL
same,MIC,[7]; WCH86,4 µg/mL
same,MIC,[7]; WCH89,4 µg/mL
same,MIC,[7]; WCH92,8 µg/mL
same,MIC,[7]; WCH137,2 µg/mL
same,MIC,[7]; WCH158,16 µg/mL
same,MIC,[7]; WCH184,16 µg/mL
same,MIC,[7]; WCH211,2 µg/mL
same,MIC,[7]; WU2,16 µg/mL
same,MIC50,[7]; all S. pneumoniae isolates,8 µg/mL
same,MIC90,[7]; all S. pneumoniae isolates,32 µg/mL
same,MIC range,[7]; all S. pneumoniae isolates,2 to 32 µg/mL
same,MIC,"[7]; isolate A66.1, Table 22, CAMHB diluent for NCL062",Confluent
same,MIC,"[7]; isolate D39, Table 22, CAMHB diluent for NCL062",Confluent
same,MIC,"[7]; isolate P21, Table 22, CAMHB diluent for NCL062",Confluent
same,MIC,"[7]; isolate WCH57, Table 22, CAMHB diluent for NCL062",Confluent
same,MIC,[7]; [10],Confluent
same,MIC,"[7]; isolate WU-2, Table 22, CAMHB diluent for NCL062",Confluent
same,"MIC (μg/ml) at 24 hours, E. coli",[8],>128 µg/mL
same,MBC,[9]; A66.1,32 µg/mL
same,MBC,[9]; D39,4 µg/mL
same,MBC,[9]; EF3030,16 µg/mL
same,MBC,[9]; L82016,32 µg/mL
same,MBC,[9]; P9,16 µg/mL
same,MBC,[9]; P21,4 µg/mL
same,MBC,[9]; TIGR4,8 µg/mL
same,MBC,[9]; WCH16,32 µg/mL
same,MBC,[9]; WCH43,4 µg/mL
same,MBC,[9]; WCH46,32 µg/mL
same,MBC,[9]; WCH57,8 µg/mL
same,MBC,[9]; WCH77,8 µg/mL
same,MBC,[9]; WCH86,8 µg/mL
same,MBC,[9]; WCH89,4 µg/mL
same,MBC,[9]; WCH92,8 µg/mL
same,MBC,[9]; WCH137,4 µg/mL
same,MBC,[9]; WCH158,16 µg/mL
same,MBC,[9]; WCH184,16 µg/mL
same,MBC,[9]; WCH211,4 µg/mL
same,MBC,[9]; WU2,64 µg/mL
same,MBC50,[9]; all S. pneumoniae isolates,16 µg/mL
same,MBC90,[9]; all S. pneumoniae isolates,32 µg/mL
same,MBC Range,[9]; all S. pneumoniae isolates,4 to 64 µg/mL
same,MBC,[9]; [10],64 µg/mL
